Reference: US20190002480A1, “Silane-Containing Heterocyclic Compounds and Methods of Use Thereof for the Treatment of Viral Diseases” (Merck Sharp & Dohme Corp., priority 2015, published 2019)
Read-outs that look alike come from different tables or passages of the source.

How the values were obtained:
HCV replicon GT1a_Q30R = assay: Cell-based HCV replicon assay, GT1a Q30R; conditions: Hepatitis C virus, 72 h, read-out: GT1a_Q30R EC90
Method: (§1) To measure cell-based anti-HCV activity of compounds of the present invention, two complimentary assays were employed using various replicons. In the first assay (“Replicon Assay A”), replicon cells were seeded at 2000 cells/well in 384-well 384-well flat bottom tissue culture treated clear bottom plate (Corning 3707) in the presence of the test compound. Various concentrations of test compound, typically in 10 serial dilutions, were added to the assay mixture, with the starting concentration ranging from 333.3 nM to […]. The final concentration of DMSO was 0.5%. Fetal bovine serum was 5%, in the assay media. Cells were harvested on day 3 by removing media and washing the cells with a suitable wash buffer. The cells are lysed with the addition of 1× Qiagen lysis buffer (Cat #1062731). The replicon RNA level was measured using real time PCR (TaqMan® EZ RT-PCR, Applied Biosystems 403028) with the following primers and probes: […]
(§2) Cyclophilin RNA was used as endogenous control and was amplified in the same reaction as NS5B (multiplex PCR). The real-time RT-PCR reactions were run on ABI PRISM 7900HT Sequence Detection System using the following program: 50° C. for 2 minutes, 60° C. for 30 minutes, 95° C. for 5 minutes, 40 cycles of 94 C for 20 sec, 55 C for 1 minutes.
(§3) The amount of HCV replicon RNA per cell is quantified using a linear regression curve for a known nanogram (ng) amount of HCV replicon total RNA. This is established by plotting the Cycle Threshold values (Ct) from the Neo probe and primer set versus the log (ng) for each HCV replicon total RNA standard. The amount of HCV RNA for each replicon sample is calculated by taking the sample's Ct value, minus the line intercept, divided by the slope of the line. Similarly, the amount of Cyclophilin mRNA per cell is also quantified using a linear regression curve for a known nanogram (ng) amount of HCV replicon total RNA. Again, this is established by plotting the Cycle Threshold values (Ct) from the Cyclophilin probe and primer set versus the log (ng) for each HCV replicon total RNA standard.
(§4) In an alternate assay (“Replicon Assay B”), 1000 cells were seeded per well in a 384-well collagen coated black plate from Greiner bio-one (Cat #781946) in 5% FBS. Inhibitors of this invention were added at 24 h post-seeding, and the plates were incubated for 3 days. Cells were subsequently lysed with Qiagen lysis buffer (Cat #1062731) to extract the RNA. HCV replicon RNA level was measured by real-time PCR using the RNA-to-CT kit from Applied Biosystem (Cat #4392656) and genotype-specific primers and probes. The amplicon was located within NS5B. The sequence of the PCR primers are as follows: 5B.2F, ATGGACAGGCGCCCTGA (SEQ. ID NO. 1); 5B.2R, […] (SEQ. ID NO. 2); the probe sequence was FAM-labeled CACGCCATGCGCTGCGG (SEQ. ID NO. 3). To detect genotype 1A the primer 1A F, TGCGGAACCGGTGAGTACA and 1A R, […] were used; the probe sequence was FAM-[…].
(§5) The real-time RT-PCR reactions were run on ABI PRISM 7900HT or Viia7 Sequence Detection System using the following program: 48° C. for 30 minutes, 95 C for 10 minutes, 40 cycles of 95 C for 15 sec, 60 C for 1 minutes. The 50% effective concentration (EC50) was the drug concentration necessary to achieve an increase in the cycle threshold (CT) of 1 over the projected baseline CT. The EC90 was the drug concentration necessary to achieve an increase in CT of 3.2 over the projected baseline CT.

HCV replicon GT3a_WT = assay: Cell-based HCV replicon assay, GT3a WT; conditions: Hepatitis C virus, 72 h; replicon RNA level by real-time PCR, 3 days
Method: as §1, §2, §3, §4, §5

HCV replicon GT1b_WT = assay: Cell-based HCV replicon assay, GT1b WT; conditions: Hepatitis C virus, 72 h, read-out: GT1b_WT EC90
Method: as §1, §2, §3, §4, §5

HCV replicon GT2b_31M = assay: Cell-based HCV replicon assay, GT2b 31M; conditions: Hepatitis C virus, 72 h, read-out: GT2b_31M EC90
Method: as §1, §2, §3, §4, §5

HCV replicon GT2a = assay: Cell-based HCV replicon assay, GT2a; conditions: Hepatitis C virus, 72 h, read-out: GT2a EC90
Method: as §1, §2, §3, §4, §5

HCV replicon GT6 = assay: Cell-based HCV replicon assay, GT6; conditions: Hepatitis C virus, GT6, 72 h; replicon RNA level by real-time PCR, 3 days
Method: as §1, §2, §3, §4, §5

HCV replicon GT3a_Y93H = assay: Cell-based HCV replicon assay, GT3a Y93H; conditions: Hepatitis C virus, 72 h, read-out: GT3a_Y93H EC90
Method: as §1, §2, §3, §4, §5

HCV replicon GT1a_L31V = assay: Cell-based HCV replicon assay, GT1a L31V; conditions: Hepatitis C virus, 72 h, read-out: GT1a_L31V EC90
Method: as §1, §2, §3, §4, §5

HCV replicon GT5 = assay: Cell-based HCV replicon assay, GT5; conditions: Hepatitis C virus, GT5, 72 h; replicon RNA level by real-time PCR, 3 days
Method: as §1, §2, §3, §4, §5

HCV replicon GT4 = assay: Cell-based HCV replicon assay, GT4; conditions: Hepatitis C virus, GT4, 72 h; replicon RNA level by real-time PCR, 3 days
Method: as §1, §2, §3, §4, §5

HCV replicon GT1a_Y93H = assay: Cell-based HCV replicon assay, GT1a Y93H; conditions: Hepatitis C virus, 72 h, read-out: GT1a_Y93H EC90
Method: as §1, §2, §3, §4, §5

HCV replicon Gt1a_WT = assay: Cell-based HCV replicon assay, GT1a WT; conditions: Hepatitis C virus, 72 h; replicon RNA level by real-time PCR, 3 days
Method: as §1
(§6) The amount of HCV replicon RNA per cell is quantified using a linear regression curve for a known nanogram (ng) amount of HCV replicon total RNA. […] The amount of HCV RNA for each replicon sample is calculated by taking the sample's Ct value, minus the line intercept, divided by the slope of the line. Similarly, the amount of Cyclophilin mRNA per cell is also quantified using a linear regression curve for a known nanogram (ng) amount of HCV replicon total RNA. […]

HCV replicon GT1a_M28V = assay: Cell-based HCV replicon assay, GT1a M28V; conditions: Hepatitis C virus, 72 h, read-out: GT1a_M28V EC90
Method: as §1, §6

[1] = replicon RNA level by real-time PCR, 3 days

| SMILES | EC90 (HCV replicon GT1a_Q30R) [nM] | EC90 (HCV replicon GT3a_WT) [nM] | EC90 (HCV replicon GT1b_WT) [nM] | EC90 (HCV replicon GT2b_31M) [nM] | EC90 (HCV replicon GT2a) [nM] | EC90 (HCV replicon GT6) [nM] | EC90 (HCV replicon GT3a_Y93H) [nM] | EC90 (HCV replicon GT1a_L31V) [nM] | EC90 (HCV replicon GT5) [nM] | EC90 (HCV replicon GT4) [nM] | EC90 (HCV replicon GT1a_Y93H) [nM] | EC90 (HCV replicon GT1b_WT; [1]) [nM] | EC90 (HCV replicon Gt1a_WT) [nM] | EC90 (HCV replicon GT2a; [1]) [nM] | EC90 (HCV replicon GT1a_M28V) [nM] |
| --- | --- | --- | --- | --- | --- | --- | --- | --- | --- | --- | --- | --- | --- | --- | --- |
| COC(=O)NC(C(=O)N1CCC[C@H]1c1ncc(-c2ccc3c(c2)cc2n3[C@H](c3cnc(C4CC4)s3)Oc3cc(-c4cnc([C@@H]5C[Si](C)(C)CN5C(=O)[C@@H](NC(=O)OC)C5CCC(F)(F)CC5)[nH]4)cc(F)c3-2)[nH]1)C(C)C (some centres unmarked) [Compound 9] | 0.0247 | 2.24 | 0.00108 | 4.24 | 0.00243 | 0.0109 | 322 | 0.026 | 0.009 | 0.00137 | 0.29 | – | – | – | – |
| COC(=O)N[C@H](C(=O)N1CCC[C@H]1c1ncc(-c2cc(F)c3c(c2)O[C@@H](c2ccc(C4CC4)s2)n2c-3cc3cc(-c4cnc([C@@H]5C[Si](C)(C)CN5C(=O)[C@@H](NC(=O)OC)C(C)C)[nH]4)ccc32)[nH]1)C(C)C [Compound 13] | 0.0328 | 0.469 | 0.00118 | 0.933 | 0.00338 | 0.0108 | 614 | 0.0756 | 0.0061 | 0.0015 | 0.561 | – | – | – | – |
| COC(=O)NC(C(=O)N1C[Si](C)(C)C[C@H]1c1ncc(-c2ccc3c(c2)cc2n3[C@H](c3ccc(C4CC4)s3)Oc3cc(-c4cnc([C@@H]5CCCN5C(=O)[C@@H](NC(=O)OC)C(C)C)[nH]4)cc(F)c3-2)[nH]1)C1CCOCC1 (some centres unmarked) [Compound 14] | 0.0027 | 0.018 | 0.00131 | 0.038 | 0.0042 | 0.0842 | 175 | 0.0062 | 0.013 | 0.00111 | 0.02 | – | – | – | – |
| COC(=O)N[C@H](C(=O)N1CCC[C@H]1c1ncc(-c2cc(F)c3c(c2)O[C@@H](c2ccc(C4CC4)s2)n2c-3cc3cc(-c4cnc([C@@H]5C[Si](C)(C)CN5C(=O)[C@@H](NC(=O)OC)[C@@H]5CCOC(C)(C)C5)[nH]4)ccc32)[nH]1)C(C)C [Compound 15] | 0.0047 | 0.173 | 0.00102 | 0.314 | 0.0021 | 0.0144 | 442 | 0.0075 | 0.0065 | 0.00136 | 0.185 | – | – | – | – |
| COC(=O)NC(C(=O)N1C[Si](C)(C)C[C@H]1c1ncc(-c2ccc3c(c2)cc2n3[C@H](c3ccc(C4CC4)s3)Oc3cc(-c4cnc([C@@H]5CCCN5C(=O)[C@@H](NC(=O)OC)C(C)C)[nH]4)cc(F)c3-2)[nH]1)C1CCC(F)(F)CC1 (some centres unmarked) [Compound 16] | 0.0285 | 1.68 | 0.00184 | 2.83 | 0.00575 | 0.0252 | 3690 | 0.0507 | 0.0173 | 0.00183 | 0.972 | – | – | – | – |
| COC(=O)N[C@H](C(=O)N1CCC[C@H]1c1ncc(-c2cc(F)c3c(c2)O[C@@H](c2ccc(C4CC4)s2)n2c-3cc3cc(-c4cnc([C@@H]5C[Si](C)(C)CN5C(=O)[C@H](N)c5ccccc5)[nH]4)ccc32)[nH]1)C(C)C [Compound 17] | 0.896 | 3.28 | – | 5.33 | – | 0.105 | 765 | 1.76 | 0.0527 | 0.0124 | 6.18 | 0.00141 | 0.00142 | 0.0582 | 0.00192 |
